Tests used:
S. aureus bacteria = test: zone of inhibition of extract solutions on agar culture plate; format: cell-based
Method: A nonwoven rayon gauze material (SofWick, a commercially available rayon gauze material manufactured by Johnson & Johnson) was graft polymerized with diallyldimethylammonium chloride (DADAMC) to 10 weight % poly(DADMAC), to form the cationic cellulose surface. Each gauze substrate treated in this manner measured approximately 40 square inches. One gram samples of cationic cellulose prepared in this manner (sample K), and untreated SofWick (sample L) were each soaked overnight in 25 ml of 0.5% SP solution. Samples were removed and squeezed to remove excess liquid. Samples were then washed in 25 mL of distilled water for one hour with agitation, and then squeezed to remove excess liquid. Each sample was subjected to four sequential extractions using 25 mL of distilled water for one hour at room temperature with agitation. Samples were squeezed to remove excess solution between extraction cycles. A fifth extraction was performed using pH 7.4 phosphate buffered saline (PBS). Saline is expected to remove a greater amount of pyrithione due to ion exchange. The extract solutions were tested for antimicrobial activity by placing single 20 microliter drops of the solutions at marked locations on an agar culture plate spread with ~3×10^3 CFU (continuous lawn) of S. aureus bacteria. Plates were incubated overnight at 37° C., and the diameter of the “zone of inhibition”, or “ZOI” was measured. […]

[1] = cited from earlier work

Compound	ZOI (S. aureus bacteria; 0.01% SP control solution)	ZOI (S. aureus bacteria; 0.1% SP control solution)	water solubility (aqueous solutions possible) ([1]; aqueous)	max. solubility in water ([1]; water)
[Na+].[O-][n+]1ccccc1[S-] [SP, sodium pyrithione]	12 mm	26 mm	> 50 wt %	
Zinc pyrithione				0.0015%
